What all share (assay type): cell-based, human
One assay relates to Jurkat T lymphoma cells. The assay can be described thus: Methotrexate selection of Jurkat cells co-transfected with pairs of transposons encoding mouse split DHFR fragments, flow cytometry for mTagBFP2/plobRFP. Particulars: 0.1 μM methotrexate; compared with coiled coil pairs. An excerpt: Transgenes encoding the six DHFR fusion proteins regulated by the EF1-alpha promoter were each placed in a Leap-In transposon vector that also included a transgene encoding a fluorescent protein. For the transposons expressing the amino-terminal piece of DHFR, the fluorescent protein was mTagBFP2. For the transposons expressing the carboxy-terminal piece, the fluorescent protein was plobRFP. These fluorescent protein transgenes were included so that cells carrying the two kinds of transposons could be readily identified by flow cytometry or fluorescent microscopy.
Jurkat T lymphoma cells were transfected with the appropriate pairs of transposons (i.e., transposons encoding both an amino- and carboxy-terminal piece of DHFR fused to leucine zipper or coiled coil sequences that should associate stably with one another). The ThermoFisher Neon® electroporator was used with 100 μl tips and three pulses of 1350V, each pulse 10 mS in length. […]
Successful methotrexate selection of cells carrying both transfected transposons was evident by the fact that the majority of cells expressed both mTagBFP2 and plobRFP. The cells were analyzed at ten days or six weeks after transfection as indicated.
On the technique in general: In flow cytometry, cells or beads pass a laser one at a time.

For the next assay, the system named is FKBP12.6tr_F36V. The assay can be described thus: Split DHFR complementation assay to show rimiducid-dependent dimerization. Particulars: cells expressing FKBP12.6tr_F36V-DHFR fragment fusions; rimiducid 100 nM, methotrexate 0.2 μM. An excerpt: The Split DHFR concept was employed as the basis of a test of whether a fragment of the human protein FKBP12.6 could dimerize in the presence of rimiducid. For this purpose, an F36V substitution was introduced into FKBP12.6 in an effort to render it sensitive to rimiducid-dependent dimerization as is the case for the paralogous protein FKBP12. See Clackson T, Yang W, Rozamus L W, Hatada M, Amara J F, Rollins C T, Stevenson L F, Magari S R, Wood S A, Courage N L, Lu X, Cerasoli F, Gilman M, Holt D A. Redesigning an FKBP-ligand interface to generate chemical dimerizers with novel specificity. Proc Natl Acad Sci USA. 1998; 95 (18): 10437-42. doi: 10.1073/pnas.95.18.10437.
The truncated version of FKBP12.6 carrying the F36V substitution (SEQ ID NO: 192) was fused at its carboxy terminus to the two fragments of murine DHFR as in Example 1, with one of the fragments bearing the L22F and F31S substitutions to confer methotrexate resistance (SEQ ID NOs: 190 and 191). […]
(§1) At left is the result for cells expressing the DHFR fragments fused to the P7A/P8A heterodimerizing coiled-coil peptides. […] Untransfected cells were analyzed under identical conditions as a control (at right).

Another assay concerns Jurkat cells. The assay can be described thus: Split DHFR complementation assay, methotrexate selection of Jurkat cells expressing DHFR fragment fusion proteins. As to conditions: 0.2 μM methotrexate, two weeks; rimiducid 100 nM for FKBP12.6tr pair.
Text: The truncated version of FKBP12.6 carrying the F36V substitution (SEQ ID NO: 192) was fused at its carboxy terminus to the two fragments of murine DHFR as in Example 1, with one of the fragments bearing the L22F and F31S substitutions to confer methotrexate resistance (SEQ ID NOs: 190 and 191).
As a control, the P7A/P8A pair of DHFR fragment fusion proteins (involving SEQ ID Nos: 188 and 189) was also used. Whereas the P7A/P8A pair of constructs co-expressed the DHFR fragments with a red fluorescent protein (RFP; plobRFP) or a blue fluorescent protein (BFP; mTagBFP2), both FKBP12.6 tr transposons carried a BFP transgene.
Jurkat cells were co-transfected by electroporation (ThermoFisher Neon; 100 μl tips; 1350V, three 10 ms pulses) with pairs of plasmids carrying transposons encoding the two DHFR fragments (7.5 μg of each) together with mRNA encoding the Leap-In Transposase® enzyme (2 μg). The cells were plated in RPMI-1640 medium supplemented with fetal bovine serum (10% vol/vol) and methotrexate (0.2 μM). Rimiducid at 100 nM was added to the medium of cells that had been transfected with the FKBP12.6tr pair of plasmids.
as §1

With “leucine zipper pair of constructs: GCN4 Leucine Zipper-Linker-Mouse DHFR (1-105; L22F/F31S) and (106-186) fusion pair”, the “average level of red and blue fluorescence of selected cells” value in the assay on Jurkat T lymphoma cells is “higher average level of both red and blue fluorescence than the pairs involving the coiled coil sequences”. As for `CC[C@H](C(=O)N1CCCC[C@H]1C(=O)O[C@H](CCc1ccc(OC)c(OC)c1)c1cccc(OCC(=O)NCCNC(=O)COc2cccc([C@@H](CCc3ccc(OC)c(OC)c3)OC(=O)[C@@H]3CCCCN3C(=O)[C@@H](CC)c3cc(OC)c(OC)c(OC)c3)c2)c1)c1cc(OC)c(OC)c(OC)c1` [rimiducid], the “rimiducid dependence of survival in methotrexate” value in the assay on FKBP12.6tr_F36V is given as “the cells failed to thrive when the drug was removed”.

B1: P7A/P8A coiled coil fusion proteins: P7A / P8A Coiled Coil-Linker-Mouse DHFR (1-105; L22F/F31S) and (106-186) fusion pair (protein)
chain 1: MGEIAALEAKNAALKAEIAALEAKNAALKAGCGGGGSGGGGSVRPLNCIVAVSQNMGIGKNGDFPWPPLRNESKYFQRMTTTSSVEGKQNLVIMGRKTWFSIPEKNRPLKDRINIVLSRELKEPPRGAHFLAKSLDDALRLIEQPEL
chain 2: MKIAALKAENAALEAKIAALKAENAALEAGGCGGGGSGGGGSASKVDMVWIVGGSSVYQEAMNQPGHLRLFVTRIMQEFESDTFFPEIDLGKYKLLPEYPGVLSEVQEEKGIKYKFEVYEKKD
As to B1, the “methotrexate resistance / survival of transfected cells” value in the assay with Jurkat cells is reported as “conferred methotrexate resistance on the transfected cells”.

The values are drawn from patent publication US20250207109A1, “ENGINEERED SPLIT DHFR-BASED METHODS AND SYSTEMS FOR SELECTING CELLS THAT HAVE STABLY ACQUIRED A HETEROLOGOUS POLYNUCLEOTIDE” (DNA Twopointo, Inc., priority 2022, published 2025).
